Source: ChEMBL document CHEMBL4411290, “Rogersonins A and B, Imidazolone N-Oxide-Incorporating Indole Alkaloids from a verG Disruption Mutant of Clonostachys rogersoniana” (J Nat Prod, 2019)
Active and inactive are the calls of the source.

What was measured:
Format in all cases: functional, cell-based
A549 = assay: Cytotoxicity against human A549 cells assessed as reduction in cell viability at 50 uM incubated for 48 hrs by MTS assay
T-24 = assay: Cytotoxicity against human T24 cells assessed as reduction in cell viability at 50 uM incubated for 48 hrs by MTS assay
HeLa = assay: Cytotoxicity against human HeLa cells assessed as reduction in cell viability at 50 uM incubated for 48 hrs by MTS assay
HepG2 = assay: Cytotoxicity against human HepG2 cells assessed as reduction in cell viability at 50 uM incubated for 48 hrs by MTS assay
HOS = assay: Cytotoxicity against human HOS cells assessed as reduction in cell viability at 50 uM incubated for 48 hrs by MTS assay
ACHN = assay: Cytotoxicity against human ACHN cells assessed as reduction in cell viability at 50 uM incubated for 48 hrs by MTS assay
SH-SY5Y = assay: Cytotoxicity against human SH-SY5Y cells assessed as reduction in cell viability at 50 uM incubated for 48 hrs by MTS assay

Measured: Activity

CC1=[N+]([O-])[C@](Cc2c[nH]c3ccccc23)([C@H](CC(=O)[C@H](C)O)C(=O)O[C@@H](C)CC[C@@H]2C=CC(=O)O2)NC1=O
inactive: A549 | T-24 | HeLa | HepG2 | HOS | ACHN | SH-SY5Y

CC1=[N+]([O-])[C@](Cc2c[nH]c3ccccc23)([C@H]2CC(=O)[C@@H](C)OC(=O)/C=C/[C@@H](O)CC[C@@H](C)OC2=O)NC1=O
inactive: A549 | T-24 | HeLa | HepG2 | HOS | ACHN | SH-SY5Y
